Measured values reported in patent US12077503B2, “Substituted cyclic amides and their use as herbicides” (FMC CORPORATION, priority 2015, dated 2024).

What was measured:
Assay type in all cases: in vivo
Kochia (Kochia scoparia) [1] = assay: Test A preemergence; conditions: Bassia scoparia, pre-emergence, 240 h, 0 to 100 scale where 0 is no effect and 100 is complete control, read-out: Kochia plant response rating; for pest or weed control at 31 g/ha: 31 g ai/ha, Preemergence; for pest or weed control at 125 g/ha: 125 g ai/ha, preemergence, visual injury rating, approximately 10 d
Method in brief: (§1)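 Visual injury scores from 0, no effect, to 100, complete control, were assigned versus untreated controls roughly 10 d after treatment in the greenhouse. Test chemicals, formulated with surfactant in a non-phytotoxic solvent, were applied to planted seeds as a preemergence soil spray or postemergence to one- to two-leaf plants 2 to 10 cm tall, in loam–sand soil.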

[2] = test system: barnyardgrass (Echinochloa crus-galli); assay: Test A preemergence; conditions: Echinochloa crus-galli, pre-emergence, 240 h, 0 to 100 scale where 0 is no effect and 100 is complete control, read-out: Barnyardgrass plant response rating; for pest or weed control at 31 g/ha: 31 g ai/ha, Preemergence; for pest or weed control at 125 g/ha: 125 g ai/ha, preemergence, visual injury rating, approximately 10 d
Method in brief: as §1

[3] = test system: giant foxtail (Setaria faberii); assay: Test A preemergence; conditions: Setaria faberi, pre-emergence, 240 h, 0 to 100 scale where 0 is no effect and 100 is complete control, read-out: Foxtail, Giant plant response rating; for pest or weed control at 31 g/ha: 31 g ai/ha, Preemergence; for pest or weed control at 125 g/ha: 125 g ai/ha, preemergence, visual injury rating, approximately 10 d
Method in brief: as §1

[4] = test system: pigweed (Amaranthus retroflexus); assay: Test A preemergence; conditions: Amaranthus retroflexus, pre-emergence, 240 h, 0 to 100 scale where 0 is no effect and 100 is complete control, read-out: Pigweed plant response rating; for pest or weed control at 31 g/ha: 31 g ai/ha, Preemergence; for pest or weed control at 125 g/ha: 125 g ai/ha, preemergence, visual injury rating, approximately 10 d
[5] = test system: ragweed (common ragweed, Ambrosia elatior); assay: Test A preemergence; conditions: Ambrosia artemisiifolia, pre-emergence, 240 h, 0 to 100 scale where 0 is no effect and 100 is complete control, read-out: Ragweed plant response rating; for pest or weed control at 31 g/ha: 31 g ai/ha, Preemergence; for pest or weed control at 125 g/ha: 125 g ai/ha, preemergence, visual injury rating, approximately 10 d
Method in brief: as §1

[6] = test system: ryegrass, Italian (Italian ryegrass, Lolium multiflorum); assay: Test A preemergence; conditions: Lolium multiflorum, pre-emergence, 240 h, 0 to 100 scale where 0 is no effect and 100 is complete control, read-out: Ryegrass, Italian plant response rating; for pest or weed control at 31 g/ha: 31 g ai/ha, Preemergence; for pest or weed control at 125 g/ha: 125 g ai/ha, preemergence, visual injury rating, approximately 10 d
Method in brief: as §1

[7] = test system: Galium (catchweed bedstraw, Galium aparine); assay: Test A postemergence; conditions: Galium, post-emergence, 240 h, Postemergence, read-out: Galium plant response rating (0 to 100 scale); for pest or weed control at 125 g/ha: 125 g ai/ha, visual rating about 10 d after treatment; for pest or weed control at 31 g/ha: 31 g ai/ha, 0 is no effect, 100 is complete control
Method in brief: as §1

Kochia (Kochia scoparia) [8] = assay: Test A postemergence; conditions: Bassia scoparia, post-emergence, 240 h, Postemergence, read-out: Kochia plant response rating (0 to 100 scale); for pest or weed control at 125 g/ha: 125 g ai/ha, visual rating about 10 d after treatment; for pest or weed control at 31 g/ha: 31 g ai/ha, 0 is no effect, 100 is complete control
Method in brief: as §1

[9] = test system: barnyardgrass (Echinochloa crus-galli); assay: Test A postemergence; conditions: Echinochloa crus-galli, post-emergence, 240 h, Postemergence; for pest or weed control at 125 g/ha: 125 g ai/ha, visual rating about 10 d after treatment, read-out: Barnyardgrass plant response rating (0 to 100 scale, 0 no effect, 100 complete control); for pest or weed control at 31 g/ha: 31 g ai/ha, 0 is no effect, 100 is complete control, read-out: Barnyardgrass plant response rating (0 to 100 scale)
Method in brief: as §1

[10] = test system: blackgrass (Alopecurus myosuroides); assay: Test A postemergence; conditions: Alopecurus myosuroides, post-emergence, 240 h, Postemergence, read-out: Blackgrass plant response rating (0 to 100 scale); for pest or weed control at 125 g/ha: 125 g ai/ha, visual rating about 10 d after treatment; for pest or weed control at 31 g/ha: 31 g ai/ha, 0 is no effect, 100 is complete control
Method in brief: as §1

corn (Zea mays) = assay: Test A postemergence; conditions: Zea mays, post-emergence, 240 h, Postemergence, read-out: Corn plant response rating (0 to 100 scale); for plant injury at 125 g/ha: 125 g ai/ha, visual rating about 10 d after treatment; for plant injury at 31 g/ha: 31 g ai/ha, 0 is no effect, 100 is complete control
Method in brief: as §1

[11] = test system: giant foxtail (Setaria faberii); assay: Test A postemergence; conditions: Setaria faberi, post-emergence, 240 h, Postemergence, read-out: Foxtail, Giant plant response rating (0 to 100 scale); for pest or weed control at 125 g/ha: 125 g ai/ha, visual rating about 10 d after treatment; for pest or weed control at 31 g/ha: 31 g ai/ha, 0 is no effect, 100 is complete control
Method in brief: as §1

[12] = test system: pigweed (Amaranthus retroflexus); assay: Test A postemergence; conditions: Amaranthus retroflexus, post-emergence, 240 h, Postemergence, read-out: Pigweed plant response rating (0 to 100 scale); for pest or weed control at 125 g/ha: 125 g ai/ha, visual rating about 10 d after treatment; for pest or weed control at 31 g/ha: 31 g ai/ha, 0 is no effect, 100 is complete control
Method in brief: as §1

[13] = test system: ragweed (common ragweed, Ambrosia elatior); assay: Test A postemergence; conditions: Ambrosia artemisiifolia, post-emergence, 240 h, Postemergence, read-out: Ragweed plant response rating (0 to 100 scale); for pest or weed control at 125 g/ha: 125 g ai/ha, visual rating about 10 d after treatment; for pest or weed control at 31 g/ha: 31 g ai/ha, 0 is no effect, 100 is complete control
Method in brief: as §1

[14] = test system: ryegrass, Italian (Italian ryegrass, Lolium multiflorum); assay: Test A postemergence; conditions: Lolium multiflorum, post-emergence, 240 h, Postemergence, read-out: Ryegrass, Italian plant response rating (0 to 100 scale); for pest or weed control at 125 g/ha: 125 g ai/ha, visual rating about 10 d after treatment; for pest or weed control at 31 g/ha: 31 g ai/ha, 0 is no effect, 100 is complete control
Method in brief: as §1

[15] = test system: wheat (Triticum aestivum); assay: Test A postemergence; conditions: Triticum aestivum, post-emergence, 240 h, Postemergence, read-out: Wheat plant response rating (0 to 100 scale); for plant injury at 125 g/ha: 125 g ai/ha, visual rating about 10 d after treatment; for plant injury at 31 g/ha: 31 g ai/ha, 0 is no effect, 100 is complete control
Method in brief: as §1

[16] = test system: barnyardgrass (Echinochloa crus-galli); assay: Test B flooded paddy test; conditions: Echinochloa crus-galli, 250 g ai/ha, Flood; 0 to 100 scale where 0 is no effect and 100 is complete control; read-out: Barnyardgrass plant response rating
Method in brief: (§2)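 Response scored visually against untreated controls, 0 = no effect and 100 = complete control, 13–15 d after treatment in the greenhouse. Compounds added to paddy water held 3 cm above soil surface. Treatment given at 2-leaf stage.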

[17] = test system: ducksalad (Heteranthera limosa); assay: Test B flooded paddy test; conditions: Heteranthera limosa, 250 g ai/ha, Flood; 0 to 100 scale where 0 is no effect and 100 is complete control; read-out: Ducksalad plant response rating
Method in brief: as §2

rice (Oryra sativa) = assay: Test B flooded paddy test; conditions: Oryza sativa, 250 g ai/ha, Flood; 0 to 100 scale where 0 is no effect and 100 is complete control; read-out: Rice plant response rating
Method in brief: as §2

[18] = test system: sedge, umbrella (small-flower umbrella sedge, Cyperus difformis); assay: Test B flooded paddy test; conditions: Cyperus difformis, 250 g ai/ha, Flood; 0 to 100 scale where 0 is no effect and 100 is complete control; read-out: Sedge, Umbrella plant response rating
Method in brief: as §2

Row | SMILES | pest or weed control at 31 g/ha (Kochia (Kochia scoparia) [1]) | pest or weed control at 125 g/ha (Kochia (Kochia scoparia) [1]) | pest or weed control at 31 g/ha [2] | pest or weed control at 125 g/ha [2] | pest or weed control at 31 g/ha [3] | pest or weed control at 125 g/ha [3] | pest or weed control at 31 g/ha [4] | pest or weed control at 125 g/ha [4] | pest or weed control at 31 g/ha [5] | pest or weed control at 125 g/ha [5] | pest or weed control at 31 g/ha [6] | pest or weed control at 125 g/ha [6] | pest or weed control at 125 g/ha [7] | pest or weed control at 31 g/ha [7] | pest or weed control at 125 g/ha (Kochia (Kochia scoparia) [8]) | pest or weed control at 31 g/ha (Kochia (Kochia scoparia) [8]) | pest or weed control at 125 g/ha [9] | pest or weed control at 31 g/ha [9] | pest or weed control at 125 g/ha [10] | pest or weed control at 31 g/ha [10] | also measured
1 | CN1C[C@H](c2ccccc2)[C@@H](C(=O)Nc2cccc(F)c2F)C1=O [Compound 1282] | 30% | 70% | 100% | 100% | 100% | 100% | 60% | 80% | 0% | 90% | 30% | 70% | 70% | 40% | 60% | 0% | 100% | 90% | 0% | 0% | plant injury at 125 g/ha (corn (Zea mays)): 30%; plant injury at 31 g/ha (corn (Zea mays)): 0%; pest or weed control at 125 g/ha [11]: 80%; pest or weed control at 31 g/ha [11]: 80%; pest or weed control at 125 g/ha [12]: 20%; pest or weed control at 31 g/ha [12]: 0%; pest or weed control at 125 g/ha [13]: 40%; pest or weed control at 31 g/ha [13]: 0%; pest or weed control at 125 g/ha [14]: 40%; pest or weed control at 31 g/ha [14]: 0%; plant injury at 125 g/ha [15]: 50%; plant injury at 31 g/ha [15]: 0%; pest or weed control at 250 g/ha [16]: 90%; pest or weed control at 250 g/ha [17]: 100%; pest or weed control at 250 g/ha (rice (Oryra sativa)): 30%; pest or weed control at 250 g/ha [18]: 0%
2 | O=C(Nc1cccc(F)c1F)C1C(=O)N(CC(F)F)CC1c1cccc(C(F)(F)F)c1 (stereo not drawn) [Compound 1294] | 0% | 0% | 0% | 50% | 0% | 30% | 0% | 0% | 0% | 0% | 0% | 0% | 0% | 0% | 0% | 0% | 20% | 0% | 0% | 0% | plant injury at 125 g/ha (corn (Zea mays)): 0%; plant injury at 31 g/ha (corn (Zea mays)): 0%; pest or weed control at 125 g/ha [11]: 20%; pest or weed control at 31 g/ha [11]: 0%; pest or weed control at 125 g/ha [12]: 0%; pest or weed control at 31 g/ha [12]: 0%; pest or weed control at 125 g/ha [13]: 0%; pest or weed control at 31 g/ha [13]: 0%; pest or weed control at 125 g/ha [14]: 0%; pest or weed control at 31 g/ha [14]: 0%; plant injury at 125 g/ha [15]: 0%; plant injury at 31 g/ha [15]: 0%; pest or weed control at 250 g/ha [16]: 0%; pest or weed control at 250 g/ha [17]: 0%; pest or weed control at 250 g/ha (rice (Oryra sativa)): 0%; pest or weed control at 250 g/ha [18]: 0%
